# Data taken from US20140066438A1, “DOPAMINE RECEPTOR D2 ANTAGONIST FOR PREVENTION AND TREATMENT OF FLAVIVIRUS INFECTION” (Academia Sinica, priority 2012, published 2014).
# Columns and labels:
# [1] = biological target: mouse dopamine D2 receptor (mouse) (UniProt P61168)
# DENV-2 = assay: Cell-based antiviral assay against DENV-2 (IFA, immunoblotting of NS3, plaque-forming assay); parameters: species or system Dengue virus serotype 2 (PL046 strain)
# Experimental: (A) PCZ cytotoxicity test. HEK293T cells were treated with solvent control or the indicated concentrations of PCZ for 24 h. AlamarBlue, XTT, and LDH assays were carried out to determine cell viability, cell proliferation, and cytotoxicity, respectively. Data are mean and standard deviation (SD) of 3 independent experiments. […] Representative immunofluorescence microscopy (400× magnification) of cells immunostained for DENV-2 NS3 (green) and DAPI for nuclei (blue). […] Plaque-forming assay of viral progeny production (plaque forming unit, PFU/ml) in culture supernatants of cells in panel C (D). Data are mean and SI) of 2 independent experiments. *P<0.05.
# (A) PCZ cytotoxicity test. HEK293T cells were treated with solvent control or the indicated concentrations of PCZ (5, 10, 15, 20 and 25 μM). AlamarBlue, XTT and LDH assays were carried out to determine cell viability, cell proliferation, and cytotoxicity, respectively. […] (D) Plaque-forming assay of viral progeny production (plaque forming unit, PFU/ml): Data are mean and SD of two independent experiments. **P<0.01. […] BHK-21 cells (E) and N18 cells (F) infected with DENV-2 (MOI=0.1) were treated with or without PCZ for 2 days and 1 day, respectively.
# HEK293T cells were infected with DENV-2 (MOI=0.1) with or without haloperidol for 1 day.
# Monolayers of cells (HEK293T, BHK-21 and N18) in 6- or 12-well plates were infected with DENV-2 at the indicated multiplicity of infection (MOI). Virus was adsorbed for 2 h with the indicated concentrations of PCZ, then cells were washed thoroughly to remove unbound viruses and incubated for an additional 24 to 48 h with or without PCZ. The antiviral effect of PCZ was evaluated by immunofluorescence assay (IFA), immunoblotting and plaque-forming assay.
# Cells were fixed with 4% PFA and permeabilized with 0.5% Triton X-100 in PBS.
# DENV-2 NGC-N strain = assay: Animal study: DENV-2 challenge of Stat1-deficient mice; assay type: in vivo
# Experimental: Stat1^−/− mice were challenged with 5×10^4 PFU/mouse of DENV-2 NGC-N strain. The protective effect of PCZ dimaleate (A) and PCZ dimethanesulfonate (Novamin Injection) (B) were tested with immediate and 6-h delay treatment. (A) The mice received phosphate buffered saline (PBS; vehicle control, n=10), 5 mg (n=8) or 1 mg (n=8) PCZ-dimaleate/kg body weight/i.p. at the time of infection (immediate treatment), or 5 mg PCZ-dimaleate/kg body weight/i.p. at 6 h post-infection (6-h delay treatment, n=8). Mice received follow-up treatment with PBS (vehicle control) or half the dose of PCZ-dimaleate orally every 12 h until day-10 post infection. […] The days with treatment are marked by arrows. Mice survival was checked daily and the data are presented as percentage of survival.
# The mouse experiments were approved and performed in accordance with the guidelines of the Academia Sinica Institutional Animal Care and Utilization Committee. Groups of 5-week-old Stat1-deficient (SaT1^−/−) mice were challenged intraperitoneally (i.p.) with 5×10^4 plaque-forming units (PFU)/mouse of DENV-2 NGC-N strain and simultaneously injected with 30 μl PBS intracranially (i.c.) into the right hemisphere of the brain. To study the efficacy of PCZ-dimaleate administered mainly by an oral route, mice were divided into 4 groups for treatment: PBS (vehicle control); 5 or 1 mg of PCZ/kg body weight/i.p. at the time of infection (immediate treatment); or 5 mg of PCZ/kg body weight/i.p. at 6 h post-infection (6-h delay treatment). Thereafter, twice a day, mice received a half dose of the first treatment orally with PBS (vehicle control) or 2.5 or 0.5 mg of PCZ/kg body weight/oral/12 h up to day 10 post-infection. […] Thereafter, every 2 days, mice received PBS or the same dose of PCZ up to day 10 post-infection. The mice were checked daily for mortality.
# [2] = test system: Japanese encephalitis virus (JEV); assay: Antiviral assay against JEV (NS3 Western blot); assay type: cell-based; conditions: BHK-21 cells, MOI=0.1, 2 days
# DENV-1 = assay: Antiviral assay against DENV-1 (NS3 Western blot); conditions: HEK293T, MOI=0.1, 2 days
# [3] = test system: clathrin-dependent endocytosis; conditions: cited from earlier work
# [4] = 2 mg PCZ/kg body weight/2 days i.p., immediate treatment
# Chain of mouse dopamine D2 receptor (mouse) (P61168 other isoform, or with tags, fused parts or gaps): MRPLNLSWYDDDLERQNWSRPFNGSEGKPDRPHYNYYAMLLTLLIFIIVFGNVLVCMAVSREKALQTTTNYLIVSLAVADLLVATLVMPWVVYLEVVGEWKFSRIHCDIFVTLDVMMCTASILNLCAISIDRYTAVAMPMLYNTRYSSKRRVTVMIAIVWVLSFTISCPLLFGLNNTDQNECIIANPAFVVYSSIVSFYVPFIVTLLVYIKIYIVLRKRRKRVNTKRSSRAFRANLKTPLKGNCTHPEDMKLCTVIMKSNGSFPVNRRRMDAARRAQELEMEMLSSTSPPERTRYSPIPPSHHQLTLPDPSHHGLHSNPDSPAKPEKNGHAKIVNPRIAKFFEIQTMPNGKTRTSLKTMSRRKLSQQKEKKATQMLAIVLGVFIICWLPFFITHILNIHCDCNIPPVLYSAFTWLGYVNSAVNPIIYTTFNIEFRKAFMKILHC
compound,measurement,setting,value
"DENV-2 PL046 strain (dengue virus serotype 2), whole virion",fold lower cell-bound virus on D2R-knockdown cells than on controls,[1],6 times
"CN1CCN(CCCN2c3ccccc3Sc3ccc(Cl)cc32)CC1 [PCZ-dimaleate, Prochlorperazine dimaleate]",antiviral effect against DENV-2 infection (NS3 Western blot),"DENV-2; BHK-21 cells, MOI=0.1, 2 days",shows antiviral effect against DENV-2 infection
same,antiviral activity against DENV-2 infection,"DENV-2; HEK293T, MOI=0.1, PCZ 5, 10 and 15 μM, 2 days",exhibits antiviral activity against DENV-2 infection
same,antiviral effect against DENV-2 infection (NS3 Western blot),"DENV-2; N18 cells, MOI=0.1, 1 day",shows antiviral effect against DENV-2 infection
same,animal mortality timing,"DENV-2 NGC-N strain; 1 mg PCZ/kg body weight/day, immediate treatment",delayed animal mortality
same,overall animal survival,"DENV-2 NGC-N strain; 1 mg PCZ/kg body weight/day, immediate treatment, first i.p. then oral",50%
same,death timing,"DENV-2 NGC-N strain; 5 mg PCZ/kg body weight, 6-h delay treatment",delayed death
same,overall survival,"DENV-2 NGC-N strain; 5 mg PCZ/kg body weight, 6-h delay treatment, 10 days",50%
same,protection against death,"DENV-2 NGC-N strain; 5 mg/kg body weight/day, immediate treatment, first i.p. then oral, 10 days",completely protected against death
same,JEV infection (NS3 Western blot),[2],inhibits Japanese encephalitis virus (JEV) infection
prochlorperazine dimethanesulfonate [PCZ-Novamin],DENV-1 replication (NS3 Western blot),DENV-1,reduced DENV-1 replication
same,protein expression of viral NS3,"DENV-2; DENV-2-infected HEK293T cells, IFA and Western blot",dose-dependently reduced
same,EC50,"DENV-2; HEK293T cells, calculated by a published method, read-out: half-maximal effective concentration (EC50) against DENV-2 infection",88.4 nM
same,viral progeny production by plaque-forming assay,"DENV-2; HEK293T, DENV-2 MOI=1, 24 h",significantly reduced viral progeny production
same,DENV-2-induced lethality timing,DENV-2 NGC-N strain; [4],slightly delayed
same,overall survival,DENV-2 NGC-N strain; [4],20%
same,protection against DENV-2 challenge after 10 days of infection,"DENV-2 NGC-N strain; 4 mg PCZ/kg body weight/2 days i.p., immediate treatment",completely protected
same,overall survival,"DENV-2 NGC-N strain; 4 mg PCZ/kg/2 days i.p., immediate treatment",40%
same,overall survival and mortality timing,"DENV-2 NGC-N strain; 4 mg kg body weight/2 days i.p., from 6 h post-infection",did not improve the overall survival but delayed the mortality
same,mice surviving the DENV-2 challenge,"DENV-2 NGC-N strain; 8 mg PCZ/kg body weight/2 days i.p., from 6 h post-infection",40%
same,protection against DENV-2 challenge after 10 days of infection,"DENV-2 NGC-N strain; 8 mg PCZ/kg body weight/2 days i.p., immediate treatment",completely protected
same,state of mice after treatment stopped at day 10 post-infection,"DENV-2 NGC-N strain; 8 mg PCZ/kg/2 days i.p., immediate treatment",remained healthy
CN(C)CCCN1c2ccccc2Sc2ccc(Cl)cc21 [Chlorpromazine],clathrin-dependent endocytosis,[3],inhibits clathrin-dependent endocytosis
O=C(CCCN1CCC(O)(c2ccc(Cl)cc2)CC1)c1ccc(F)cc1 [haloperidol],antiviral activity against DENV-2 infection (NS3 Western blot),"DENV-2; HEK293T, MOI=0.1, 1 day",showed antiviral activity against DENV-2 infection
